Assay results reported in publication PMC8401933 (Molecules, 2021).

What was measured:
Assay in all cases: KINOMEscan binding
FLT3(D835V) = biological target: T1, FLT3(D835V) (Homo sapiens, UniProt P36888, D835V); details: read-out: Percent Control
T1 construct: purchased Eurofins DiscoverX KINOMEscan

PIK3CD = biological target: T2, PIK3CD (Homo sapiens, UniProt O00329); details: read-out: Percent Control
T2 construct: purchased Eurofins DiscoverX KINOMEscan

FLT3(ITD,F691L) = tested on: FLT3(ITD,F691L); design: species or system human; details: 10 μM
FLT3(K663Q) = biological target: T3, FLT3(K663Q) (Homo sapiens, UniProt P36888, K663Q); details: read-out: Percent Control
T3 construct: purchased Eurofins DiscoverX KINOMEscan

TGFBR1 = biological target: T4, TGFBR1 (Homo sapiens, UniProt P36897); details: read-out: Percent Control
T4 construct: purchased Eurofins DiscoverX KINOMEscan

MARK4 = biological target: T5, MARK4 (Homo sapiens, UniProt Q96L34); details: read-out: Percent Control
T5 construct: purchased Eurofins DiscoverX KINOMEscan
T5 sequence (Q96L34 whole entry): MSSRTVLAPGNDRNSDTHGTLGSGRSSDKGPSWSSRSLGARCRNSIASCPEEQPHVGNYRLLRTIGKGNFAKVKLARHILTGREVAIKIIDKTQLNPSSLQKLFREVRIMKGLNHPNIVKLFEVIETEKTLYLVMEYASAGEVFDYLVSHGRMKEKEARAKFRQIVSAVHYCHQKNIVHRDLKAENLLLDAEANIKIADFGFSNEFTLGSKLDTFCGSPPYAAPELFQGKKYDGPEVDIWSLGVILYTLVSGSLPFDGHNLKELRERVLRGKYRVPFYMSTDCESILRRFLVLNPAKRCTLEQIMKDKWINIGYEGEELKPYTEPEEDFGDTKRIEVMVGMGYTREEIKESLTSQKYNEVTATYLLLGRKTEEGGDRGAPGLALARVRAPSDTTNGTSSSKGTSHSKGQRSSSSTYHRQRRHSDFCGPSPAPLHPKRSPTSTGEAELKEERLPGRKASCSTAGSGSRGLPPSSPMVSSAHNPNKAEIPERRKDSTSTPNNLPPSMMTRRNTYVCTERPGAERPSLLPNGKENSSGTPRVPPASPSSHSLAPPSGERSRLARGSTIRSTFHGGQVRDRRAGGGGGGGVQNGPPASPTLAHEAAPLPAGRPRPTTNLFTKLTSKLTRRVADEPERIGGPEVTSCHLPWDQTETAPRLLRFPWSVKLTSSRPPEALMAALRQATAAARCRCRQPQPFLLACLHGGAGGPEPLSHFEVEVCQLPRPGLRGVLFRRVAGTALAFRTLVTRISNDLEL

STK33 = biological target: T6, STK33 (Homo sapiens, UniProt Q9BYT3); details: read-out: Percent Control
T6 construct: purchased Eurofins DiscoverX KINOMEscan

BUB1 = biological target: T7, BUB1 (Homo sapiens, UniProt O43683); details: read-out: Percent Control
T7 construct: purchased Eurofins DiscoverX KINOMEscan
T7 sequence (O43683 whole entry): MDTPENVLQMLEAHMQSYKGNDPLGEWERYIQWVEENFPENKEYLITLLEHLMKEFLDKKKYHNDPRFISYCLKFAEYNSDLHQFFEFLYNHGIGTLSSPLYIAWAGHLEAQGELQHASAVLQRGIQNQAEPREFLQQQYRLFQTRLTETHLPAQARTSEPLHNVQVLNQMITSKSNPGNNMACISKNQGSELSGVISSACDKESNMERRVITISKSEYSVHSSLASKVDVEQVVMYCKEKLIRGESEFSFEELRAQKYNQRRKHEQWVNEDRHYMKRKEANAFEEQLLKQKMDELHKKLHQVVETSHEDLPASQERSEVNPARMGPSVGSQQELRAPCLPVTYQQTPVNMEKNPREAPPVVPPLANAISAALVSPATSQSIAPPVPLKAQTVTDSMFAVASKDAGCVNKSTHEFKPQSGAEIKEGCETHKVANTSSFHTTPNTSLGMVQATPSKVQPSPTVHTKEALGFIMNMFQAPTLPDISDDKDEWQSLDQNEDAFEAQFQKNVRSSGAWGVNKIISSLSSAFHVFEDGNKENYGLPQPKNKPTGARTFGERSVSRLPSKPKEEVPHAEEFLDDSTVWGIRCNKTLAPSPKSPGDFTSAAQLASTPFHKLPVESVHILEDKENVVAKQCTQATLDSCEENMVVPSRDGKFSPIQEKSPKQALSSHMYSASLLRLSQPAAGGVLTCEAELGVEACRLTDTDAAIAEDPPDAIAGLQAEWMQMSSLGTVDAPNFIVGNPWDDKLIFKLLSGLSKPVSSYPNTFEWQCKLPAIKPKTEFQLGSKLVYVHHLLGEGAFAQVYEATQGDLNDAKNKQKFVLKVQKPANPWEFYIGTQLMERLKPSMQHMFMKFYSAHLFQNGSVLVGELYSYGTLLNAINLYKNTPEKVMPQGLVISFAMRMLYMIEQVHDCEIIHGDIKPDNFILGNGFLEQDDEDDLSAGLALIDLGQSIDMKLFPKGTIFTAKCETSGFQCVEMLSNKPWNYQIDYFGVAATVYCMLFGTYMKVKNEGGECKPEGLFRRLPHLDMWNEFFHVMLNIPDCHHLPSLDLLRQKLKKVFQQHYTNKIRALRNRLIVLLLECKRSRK

JNK1 = biological target: T8, JNK1 (Homo sapiens, UniProt P45983); details: read-out: Percent Control
T8 construct: purchased Eurofins DiscoverX KINOMEscan

BMPR1B = biological target: T9, BMPR1B (Homo sapiens, UniProt O00238); details: read-out: Percent Control
T9 construct: purchased Eurofins DiscoverX KINOMEscan

PRKCI = biological target: T10, PRKCI (Homo sapiens, UniProt P41743); details: read-out: Percent Control
T10 construct: purchased Eurofins DiscoverX KINOMEscan
T10 sequence (P41743 whole entry): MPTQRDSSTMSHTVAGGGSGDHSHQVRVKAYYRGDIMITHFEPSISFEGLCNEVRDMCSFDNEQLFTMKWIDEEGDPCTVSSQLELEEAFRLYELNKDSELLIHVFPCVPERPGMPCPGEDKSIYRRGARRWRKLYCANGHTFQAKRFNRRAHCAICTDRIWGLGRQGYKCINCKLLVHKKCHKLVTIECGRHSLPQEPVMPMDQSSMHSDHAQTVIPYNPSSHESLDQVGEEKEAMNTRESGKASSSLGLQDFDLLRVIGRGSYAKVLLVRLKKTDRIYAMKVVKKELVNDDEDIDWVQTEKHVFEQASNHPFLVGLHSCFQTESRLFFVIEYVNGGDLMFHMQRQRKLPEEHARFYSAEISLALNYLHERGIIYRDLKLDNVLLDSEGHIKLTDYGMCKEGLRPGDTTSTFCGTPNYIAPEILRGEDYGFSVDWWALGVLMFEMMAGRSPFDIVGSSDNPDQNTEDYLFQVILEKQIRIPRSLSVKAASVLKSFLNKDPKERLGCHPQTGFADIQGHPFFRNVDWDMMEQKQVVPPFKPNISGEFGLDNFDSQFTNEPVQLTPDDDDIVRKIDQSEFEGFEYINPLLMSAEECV

CLK4 = biological target: T11, CLK4 (Homo sapiens, UniProt Q9HAZ1); details: read-out: Percent Control
T11 construct: purchased Eurofins DiscoverX KINOMEscan

FGFR3(G697C) = biological target: T12, FGFR3(G697C) (Homo sapiens, UniProt P22607, G697C); details: read-out: Percent Control
T12 construct: purchased Eurofins DiscoverX KINOMEscan

NDR2 = biological target: T13, NDR2 (Homo sapiens, UniProt Q9Y2H1); details: read-out: Percent Control
T13 construct: purchased Eurofins DiscoverX KINOMEscan

KIT = biological target: T14, KIT (Homo sapiens, UniProt P10721); details: read-out: Percent Control
T14 construct: purchased Eurofins DiscoverX KINOMEscan

PRKX = biological target: T15, PRKX (Homo sapiens, UniProt P51817); details: read-out: Percent Control
T15 construct: purchased Eurofins DiscoverX KINOMEscan

FGR = biological target: T16, FGR (Homo sapiens, UniProt P09769); details: read-out: Percent Control
T16 construct: purchased Eurofins DiscoverX KINOMEscan

PKNB(M.tuberculosis) = biological target: T17, PKNB(M.tuberculosis) (Mycobacterium tuberculosis, UniProt P9WI81); details: read-out: Percent Control
T17 construct: purchased Eurofins DiscoverX KINOMEscan

RET = biological target: T18, RET (Homo sapiens, UniProt P07949); details: read-out: Percent Control
T18 construct: purchased Eurofins DiscoverX KINOMEscan

[1] = biological target: T19, RSK4(Kin.Dom.2-C-terminal) (Homo sapiens, UniProt Q9UK32); details: read-out: Percent Control
T19 construct: RSK4(Kin.Dom.2-C-terminal); purchased Eurofins DiscoverX KINOMEscan

TNK1 = biological target: T20, TNK1 (Homo sapiens, UniProt Q13470); details: read-out: Percent Control
T20 construct: purchased Eurofins DiscoverX KINOMEscan

GRK2 = biological target: T21, GRK2 (Homo sapiens, UniProt P25098); details: read-out: Percent Control
T21 construct: purchased Eurofins DiscoverX KINOMEscan

EPHA6 = biological target: T22, EPHA6 (Homo sapiens, UniProt Q9UF33); details: read-out: Percent Control
T22 construct: purchased Eurofins DiscoverX KINOMEscan

ITK = biological target: T23, ITK (Homo sapiens, UniProt Q08881); details: read-out: Percent Control
T23 construct: purchased Eurofins DiscoverX KINOMEscan

TNNI3K = biological target: T24, TNNI3K (Homo sapiens, UniProt Q59H18); details: read-out: Percent Control
T24 construct: purchased Eurofins DiscoverX KINOMEscan
T24 sequence (Q59H18 whole entry): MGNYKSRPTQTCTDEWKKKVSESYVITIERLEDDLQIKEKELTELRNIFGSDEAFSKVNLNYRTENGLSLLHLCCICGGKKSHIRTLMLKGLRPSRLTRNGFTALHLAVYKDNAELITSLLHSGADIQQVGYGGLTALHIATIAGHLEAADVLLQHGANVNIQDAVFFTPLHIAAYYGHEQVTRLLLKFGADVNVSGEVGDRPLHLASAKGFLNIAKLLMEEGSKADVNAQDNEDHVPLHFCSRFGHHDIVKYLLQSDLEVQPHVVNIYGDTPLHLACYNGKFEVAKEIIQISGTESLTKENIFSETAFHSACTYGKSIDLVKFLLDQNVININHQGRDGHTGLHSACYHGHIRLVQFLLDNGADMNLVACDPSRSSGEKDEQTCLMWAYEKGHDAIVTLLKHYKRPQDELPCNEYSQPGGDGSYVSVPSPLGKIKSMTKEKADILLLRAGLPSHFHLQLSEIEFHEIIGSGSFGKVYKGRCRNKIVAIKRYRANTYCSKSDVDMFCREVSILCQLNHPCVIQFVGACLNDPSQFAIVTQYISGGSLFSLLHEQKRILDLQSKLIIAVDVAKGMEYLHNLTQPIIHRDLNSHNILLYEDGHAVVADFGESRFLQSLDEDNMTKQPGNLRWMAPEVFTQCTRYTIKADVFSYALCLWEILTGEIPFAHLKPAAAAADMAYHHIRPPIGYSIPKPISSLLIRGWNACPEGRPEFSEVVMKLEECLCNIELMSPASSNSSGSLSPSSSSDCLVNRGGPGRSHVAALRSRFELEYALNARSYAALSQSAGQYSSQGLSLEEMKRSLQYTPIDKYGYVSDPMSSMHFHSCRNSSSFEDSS

p38-beta = biological target: T25, p38-beta (Homo sapiens, UniProt Q15759); details: read-out: Percent Control
T25 construct: purchased Eurofins DiscoverX KINOMEscan
T25 sequence (Q15759 whole entry): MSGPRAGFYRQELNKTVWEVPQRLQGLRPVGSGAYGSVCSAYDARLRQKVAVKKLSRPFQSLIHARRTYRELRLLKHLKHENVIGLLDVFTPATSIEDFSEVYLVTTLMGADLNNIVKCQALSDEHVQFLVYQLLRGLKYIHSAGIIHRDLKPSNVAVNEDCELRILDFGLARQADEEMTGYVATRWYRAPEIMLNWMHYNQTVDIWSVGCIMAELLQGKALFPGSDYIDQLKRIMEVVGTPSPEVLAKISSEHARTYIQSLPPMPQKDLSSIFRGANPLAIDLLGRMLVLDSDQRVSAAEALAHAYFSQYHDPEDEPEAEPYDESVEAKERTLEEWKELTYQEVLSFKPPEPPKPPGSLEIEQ

[2] = biological target: T26, RPS6KA4(Kin.Dom.1-N-terminal) (Homo sapiens, UniProt O75676); details: read-out: Percent Control
T26 construct: RPS6KA4(Kin.Dom.1-N-terminal); purchased Eurofins DiscoverX KINOMEscan

PYK2 = biological target: T27, PYK2 (Homo sapiens, UniProt Q14289); details: read-out: Percent Control
T27 construct: purchased Eurofins DiscoverX KINOMEscan

EPHB3 = biological target: T28, EPHB3 (Homo sapiens, UniProt P54753); details: read-out: Percent Control
T28 construct: purchased Eurofins DiscoverX KINOMEscan
T28 sequence (P54753 34-998): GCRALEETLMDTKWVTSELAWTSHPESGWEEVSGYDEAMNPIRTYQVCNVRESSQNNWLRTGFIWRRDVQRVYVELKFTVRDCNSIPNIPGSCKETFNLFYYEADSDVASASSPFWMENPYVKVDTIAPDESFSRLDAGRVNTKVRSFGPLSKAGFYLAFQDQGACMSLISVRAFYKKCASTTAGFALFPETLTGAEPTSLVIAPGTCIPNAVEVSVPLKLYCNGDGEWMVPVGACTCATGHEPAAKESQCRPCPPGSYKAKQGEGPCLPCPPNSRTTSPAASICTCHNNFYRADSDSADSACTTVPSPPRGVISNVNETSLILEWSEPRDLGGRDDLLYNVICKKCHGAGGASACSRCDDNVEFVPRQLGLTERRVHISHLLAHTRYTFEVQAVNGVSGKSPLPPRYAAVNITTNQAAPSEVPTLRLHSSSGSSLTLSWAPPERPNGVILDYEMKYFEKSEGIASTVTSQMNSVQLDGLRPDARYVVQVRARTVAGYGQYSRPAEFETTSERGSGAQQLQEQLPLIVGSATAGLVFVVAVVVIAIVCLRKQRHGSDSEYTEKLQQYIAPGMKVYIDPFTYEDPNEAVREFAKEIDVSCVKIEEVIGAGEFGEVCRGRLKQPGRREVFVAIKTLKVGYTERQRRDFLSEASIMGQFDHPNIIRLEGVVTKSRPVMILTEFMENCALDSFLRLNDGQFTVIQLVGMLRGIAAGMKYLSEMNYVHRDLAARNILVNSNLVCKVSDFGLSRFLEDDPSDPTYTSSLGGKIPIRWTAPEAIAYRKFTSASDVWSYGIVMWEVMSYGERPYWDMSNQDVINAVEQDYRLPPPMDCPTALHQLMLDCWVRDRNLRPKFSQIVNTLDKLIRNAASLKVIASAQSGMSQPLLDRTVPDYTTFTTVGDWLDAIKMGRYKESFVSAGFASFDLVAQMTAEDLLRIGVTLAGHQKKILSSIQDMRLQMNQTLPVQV

AKT3 = biological target: T29, AKT3 (Homo sapiens, UniProt Q9Y243); details: read-out: Percent Control
T29 construct: purchased Eurofins DiscoverX KINOMEscan

CAMK4 = biological target: T30, CAMK4 (Homo sapiens, UniProt Q16566); details: read-out: Percent Control
T30 construct: purchased Eurofins DiscoverX KINOMEscan
T30 sequence (Q16566 whole entry): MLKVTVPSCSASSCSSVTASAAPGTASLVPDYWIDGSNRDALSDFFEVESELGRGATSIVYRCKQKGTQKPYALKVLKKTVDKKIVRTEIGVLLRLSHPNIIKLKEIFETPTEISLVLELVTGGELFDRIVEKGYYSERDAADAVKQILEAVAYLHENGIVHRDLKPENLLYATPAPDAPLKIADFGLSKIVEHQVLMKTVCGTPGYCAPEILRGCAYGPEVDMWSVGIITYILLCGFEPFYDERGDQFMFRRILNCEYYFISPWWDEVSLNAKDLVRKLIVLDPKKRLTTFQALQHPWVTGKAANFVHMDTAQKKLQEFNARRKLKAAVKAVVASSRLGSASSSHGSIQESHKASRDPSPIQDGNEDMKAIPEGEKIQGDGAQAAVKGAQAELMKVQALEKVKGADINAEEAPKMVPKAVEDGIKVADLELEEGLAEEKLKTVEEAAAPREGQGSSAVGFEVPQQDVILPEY

CAMKK2 = biological target: T31, CAMKK2 (Homo sapiens, UniProt Q96RR4); details: read-out: Percent Control
T31 construct: purchased Eurofins DiscoverX KINOMEscan

GSK3B = biological target: T32, GSK3B (Homo sapiens, UniProt P49841); details: read-out: Percent Control
T32 construct: purchased Eurofins DiscoverX KINOMEscan

IKK-alpha = biological target: T33, IKK-alpha (Homo sapiens, UniProt O15111); details: read-out: Percent Control
T33 construct: purchased Eurofins DiscoverX KINOMEscan

IRAK1 = biological target: T34, IRAK1 (Homo sapiens, UniProt P51617); details: read-out: Percent Control
T34 construct: purchased Eurofins DiscoverX KINOMEscan

MAPKAPK2 = biological target: T35, MAPKAPK2 (Homo sapiens, UniProt P49137); details: read-out: Percent Control
T35 construct: purchased Eurofins DiscoverX KINOMEscan

MYO3B = biological target: T36, MYO3B (Homo sapiens, UniProt Q8WXR4); details: read-out: Percent Control
T36 construct: purchased Eurofins DiscoverX KINOMEscan

p38-alpha = biological target: T37, p38-alpha (Homo sapiens, UniProt Q16539); details: read-out: Percent Control
T37 construct: purchased Eurofins DiscoverX KINOMEscan

PAK7 = biological target: T38, PAK7 (Homo sapiens, UniProt Q9P286); details: read-out: Percent Control
T38 construct: purchased Eurofins DiscoverX KINOMEscan

PRKD2 = biological target: T39, PRKD2 (Homo sapiens, UniProt Q9BZL6); details: read-out: Percent Control
T39 construct: purchased Eurofins DiscoverX KINOMEscan

SYK = biological target: T40, SYK (Homo sapiens, UniProt P43405); details: read-out: Percent Control
T40 construct: purchased Eurofins DiscoverX KINOMEscan

ULK1 = biological target: T41, ULK1 (Homo sapiens, UniProt O75385); details: read-out: Percent Control
T41 construct: purchased Eurofins DiscoverX KINOMEscan

ROCK2 = ROCK2 (Homo sapiens, UniProt O75116); design: purchased Eurofins DiscoverX (KINOMEscan service); details: read-out: Percent Control

In the case of `CC(C)NC(=O)COc1cccc(-c2nc(Nc3ccc4[nH]ncc4c3)c3ccccc3n2)c1` [KD025, 2-(3-(4-((1H-indazol-5-yl)amino)quinazolin-2-yl)phenoxy)-N-isopropylacetamide], the remaining binding at 10 µM (FLT3(D835V)) is reported as 23%, the remaining binding at 10 µM (PIK3CD) is reported as 41% and the “Percent Control” value (FLT3(ITD,F691L)) is reported as 52%. It also gave a remaining binding at 10 µM (FLT3(K663Q)) of 55%, a remaining binding at 10 µM (TGFBR1) of 59% and a remaining binding at 10 µM (MARK4) of 66%. The remaining binding at 10 µM (STK33) was 67%, the remaining binding at 10 µM (BUB1) was 69% and the remaining binding at 10 µM (JNK1) was 70%. The remaining binding at 10 µM (BMPR1B) was 76%, the remaining binding at 10 µM (PRKCI) was 76% and the remaining binding at 10 µM (CLK4) was 77%. It also gave a remaining binding at 10 µM (FGFR3(G697C)) of 77%, a remaining binding at 10 µM (NDR2) of 77% and a remaining binding at 10 µM (KIT) of 79%. The remaining binding at 10 µM (PRKX) was 81%, the remaining binding at 10 µM (FGR) was 82% and the remaining binding at 10 µM (PKNB(M.tuberculosis)) was 83%. For the same compound, the remaining binding at 10 µM (RET) was 88%, the remaining binding at 10 µM [1] was 88% and the remaining binding at 10 µM (TNK1) was 88%. For the same compound, the remaining binding at 10 µM (GRK2) was 89%, the remaining binding at 10 µM (EPHA6) was 90% and the remaining binding at 10 µM (ITK) was 92%. It also gave a remaining binding at 10 µM (TNNI3K) of 92%, a remaining binding at 10 µM (p38-beta) of 93% and a remaining binding at 10 µM [2] of 94%. For the same compound, the remaining binding at 10 µM (PYK2) was 95%, the remaining binding at 10 µM (EPHB3) was 99% and the remaining binding at 10 µM (AKT3) was 100%. The remaining binding at 10 µM (CAMK4) was 100%, the remaining binding at 10 µM (CAMKK2) was 100% and the remaining binding at 10 µM (GSK3B) was 100%. The remaining binding at 10 µM (IKK-alpha) was 100%, the remaining binding at 10 µM (IRAK1) was 100% and the remaining binding at 10 µM (MAPKAPK2) was 100%. For the same compound, the remaining binding at 10 µM (MYO3B) was 100%, the remaining binding at 10 µM (p38-alpha) was 100% and the remaining binding at 10 µM (PAK7) was 100%. The remaining binding at 10 µM (PRKD2) was 100%, the remaining binding at 10 µM (SYK) was 100% and the remaining binding at 10 µM (ULK1) was 100%. For the same compound, the remaining binding at 10 µM (ROCK2) was 0.05%.
